Assay results as given in US20240101602A1, “ANTIMICROBIAL PEPTIDES AND METHOD OF PREVENTING OR TREATING INFECTION BY USING THE SAME” (priority 2020, published 2024).
≈ marks a conversion by molar mass, not a printed value. Like-named read-outs stand apart in the source and are kept apart here. Non-standard residues stand in square brackets, D forms with d. Residues, ends and D or L forms follow the SMILES beside them. *: point of attachment. Palmitoyl = CCCCCCCCCCCCCCCC(=O)*; Octanoyl = CCCCCCCC(=O)*; Orn = NCCC[C@H](N)C(=O)O; Hexanoyl = CCCCCC(=O)*; Butyryl = CCCC(=O)*

Experiments:
[1] = tested on: Eco DH5α; test: MIC and MBC by serial dilution in 96-well plate; type: cell-based, Escherichia coli; settings: Table 13
Method: The effect of peptide length on the antimicrobial activity was investigated by deciding the minimal inhibitory concentration (MIC) and minimal bactericidal concentration (MBC) for each peptide against the pathogen with the media and growth conditions of phytopathogenic bacteria and E. coli as described in Table 1. Single bacterial colony grown on an optimal rich agar medium was picked, and each grew in 3 mL of the same rich liquid medium for 4 to 6 h.
For experiments carried out in the rich medium, the bacterial broth culture was then diluted in the same medium to give a final concentration of OD600=0.08, and then further diluted 100 folds in the same medium.
For experiments carried out in the minimal medium, the bacterial cells were collected from the bacterial liquid culture by centrifugation, re-suspended in an optimal minimal medium to give a final concentration of OD600=0.08, and then further diluted 100 folds in the same minimal medium.
Fifty microliters of serially diluted peptides (2-fold the final concentration) were added in a 96-well polystyrene plate with 50 μL of the bacterial culture. The final concentrations of peptides were 0, 2, 4, 8, 16 and 32 μg/mL. The plates were incubated at an optimal temperature without shaking.
MBC was determined as the lowest peptide concentration at which no colonies formed.

[2] = tested on: Erwinia chrysanthemi; type: cell-based
Method: (§1) The effect of peptide length on the antimicrobial activity was investigated by deciding the minimal inhibitory concentration (MIC) and minimal bactericidal concentration (MBC) for each peptide against the pathogen with the media and growth conditions of phytopathogenic bacteria and E. coli as described in Table 1. Single bacterial colony grown on an optimal rich agar medium was picked, and each grew in 3 mL of the same rich liquid medium for 4 to 6 h. For experiments carried out in the rich medium, the bacterial broth culture was then diluted in the same medium to give a final concentration of OD600=0.08, and then further diluted 100 folds in the same medium. For experiments carried out in the minimal medium, the bacterial cells were collected from the bacterial liquid culture by centrifugation, re-suspended in an optimal minimal medium to give a final concentration of OD600=0.08, and then further diluted 100 folds in the same minimal medium. Fifty microliters of serially diluted peptides (2-fold the final concentration) were added in a 96-well polystyrene plate with 50 μL of the bacterial culture. […] The plates were incubated at an optimal temperature without shaking. […] MBC was determined as the lowest peptide concentration at which no colonies formed. The experiments were conducted in an optimal minimal medium for each pathogen. The media and growth conditions were described in Tables 2 and 3. MIC and MBC values were determined following the procedures described above. […] Fifty microliters of serially diluted peptides (2-fold the final concentration) were added in a 96-well polystyrene plate with 50 μL of the fungal spore suspension.

[3] = tested on: Pectobacterium carotovorum subsp. carotovorum; type: cell-based
Method: as §1

[4] = tested on: Klebsiella pneumonia NTUH-K2044
[5] = tested on: Staphylococcus aureus BCRC 10777
[6] = tested on: Staphylococcus epidermidis ATCC 14990
[7] = tested on: Pseudomonas aeruginosa ATCC 9027
[8] = tested on: Salmonella typhimurium NCHU 15721
[9] = tested on: Botrytis cinerea; type: cell-based
Method: (§2) The experiments were conducted in an optimal minimal medium for each pathogen. The media and growth conditions were described in Tables 2 and 3. MIC and MBC values were determined following the procedures described above. […] Fifty microliters of serially diluted peptides (2-fold the final concentration) were added in a 96-well polystyrene plate with 50 μL of the fungal spore suspension. […] The plates were incubated at an optimal temperature without shaking. […] MFC was determined as the lowest peptide concentration at which no fungal growth was observed.

[10] = tested on: Cryptococcus neoformans H99
[11] = tested on: Cryptococcus neoformans T1 (fluconazole-resistant)
[12] = tested on: Cryptococcus neoformans 89-610 (fluconazole-resistant)
[13] = tested on: Cryptococcus deuterogattii R265
[14] = tested on: Cgl FST02; type: cell-based, Colletotricum gloeosporioides; settings: Cgl FST02; optimal minimal media (Table 11)
Method: as §2

[15] = Salmonella typhimurium NCHU 15721
[16] = Pseudomonas aeruginosa ATCC 9027
[17] = Bc, optimal minimal media (Table 11)

Compound	MBC [4]	MIC [4]	MBC [5]	MIC [5]	MBC [6]	MIC [6]	MBC ([7]; ATCC 9027)	MIC ([7]; ATCC 9027)	further results
Ac-WKKIKKIIKKIKKI-NH2 [pepI2]	32 µg/mL	16 µg/mL	32 µg/mL	32 µg/mL	32 µg/mL	16 µg/mL	4 µg/mL	4 µg/mL	MBC [1]: 5.3 µg/mL; MIC [1]: 5.3 µg/mL; MBC [2]: 16.0 µg/mL; MIC [2]: 16.0 µg/mL; MBC [3]: 1.8 µg/mL; MIC [3]: 1.5 µg/mL; MBC [8, 15]: 16 µg/mL; MIC [8, 15]: 8 µg/mL
Ac-WKKLKKMLKKL-NH2 [pepD3-7M]	–	–	–	–	–	–	8 µg/mL	4 µg/mL	–
CC(=O)N[C@@H](Cc1c[nH]c2ccccc12)C(=O)N[C@@H](CCCN)C(=O)N[C@@H](CCCN)C(=O)N[C@@H](CC(C)C)C(=O)N[C@@H](CCCN)C(=O)N[C@@H](CCCN)C(=O)N[C@@H](CC(C)C)C(=O)N[C@@H](CC(C)C)C(=O)N[C@@H](CCCN)C(=O)N[C@@H](CCCN)C(=O)N[C@@H](CC(C)C)C(=O)N[C@@H](CCCN)C(=O)N[C@@H](CCCN)C(=O)N[C@@H](CC(C)C)C(N)=O [pepO2, Ac-WOOLOOLLOOLOOL-NH2] (Ac-W[Orn][Orn]L[Orn][Orn]LL[Orn][Orn]L[Orn][Orn]L-NH2)	32 µg/mL (≈ 18.6 µM)	16 µg/mL (≈ 9.28 µM)	32 µg/mL (≈ 18.6 µM)	32 µg/mL (≈ 18.6 µM)	32 µg/mL (≈ 18.6 µM)	32 µg/mL (≈ 18.6 µM)	–	–	–
Ac-WKKLRKLLKKL-NH2 [pepD3-5R]	–	–	–	–	–	–	–	–	MBC [7, 16]: 8 µg/mL; MIC [7, 16]: 4 µg/mL
CCCC(=O)N[C@@H](Cc1c[nH]c2ccccc12)C(=O)N[C@@H](CCCCN)C(=O)N[C@@H](CCCCN)C(=O)N[C@@H](CC(C)C)C(=O)N[C@@H](CCCCN)C(=O)N[C@@H](CCCCN)C(=O)N[C@@H](CC(C)C)C(=O)N[C@@H](CC(C)C)C(=O)N[C@@H](CCCCN)C(=O)N[C@@H](CCCCN)C(=O)N[C@@H](CC(C)C)C(N)=O [pepD3B] (Butyryl-WKKLKKLLKKL-NH2)	16 µg/mL (≈ 10.7 µM)	16 µg/mL (≈ 10.7 µM)	16 µg/mL (≈ 10.7 µM)	16 µg/mL (≈ 10.7 µM)	16 µg/mL (≈ 10.7 µM)	16 µg/mL (≈ 10.7 µM)	–	–	–
Ac-WKKLHKLLKKL-NH2 [pepD3-5H]	–	–	–	–	–	–	8 µg/mL	4 µg/mL	–
Ac-WRRLRRLLRRLRRL-NH2 [pepR2]	32 µg/mL	32 µg/mL	16 µg/mL	16 µg/mL	16 µg/mL	16 µg/mL	–	–	–
CCCCCCCCCCCCCCCC(=O)N[C@@H](Cc1c[nH]c2ccccc12)C(=O)N[C@@H](CCCCN)C(=O)N[C@@H](CCCCN)C(=O)N[C@@H](CC(C)C)C(=O)N[C@@H](CCCCN)C(=O)N[C@@H](CCCCN)C(=O)N[C@@H](CC(C)C)C(=O)N[C@@H](CC(C)C)C(=O)N[C@@H](CCCCN)C(=O)N[C@@H](CCCCN)C(=O)N[C@@H](CC(C)C)C(=O)N[C@@H](CCCCN)C(=O)N[C@@H](CCCCN)C(=O)N[C@@H](CC(C)C)C(N)=O [pepD2P] (Palmitoyl-WKKLKKLLKKLKKL-NH2)	–	–	–	–	–	–	–	–	MFC [9]: 6.4 µg/mL (≈ 3.15 µM); MIC [9]: 6.4 µg/mL (≈ 3.15 µM)
Ac-WKKLKKILKKL-NH2 [pepD3-7I]	–	–	–	–	–	–	4 µg/mL	4 µg/mL	–
CCCCCC(=O)N[C@@H](Cc1c[nH]c2ccccc12)C(=O)N[C@@H](CCCCN)C(=O)N[C@@H](CCCCN)C(=O)N[C@@H](CC(C)C)C(=O)N[C@@H](CCCCN)C(=O)N[C@@H](CCCCN)C(=O)N[C@@H](CC(C)C)C(=O)N[C@@H](CC(C)C)C(=O)N[C@@H](CCCCN)C(=O)N[C@@H](CCCCN)C(=O)N[C@@H](CC(C)C)C(N)=O [pepD3H] (Hexanoyl-WKKLKKLLKKL-NH2)	16 µg/mL (≈ 10.5 µM)	16 µg/mL (≈ 10.5 µM)	8 µg/mL (≈ 5.25 µM)	8 µg/mL (≈ 5.25 µM)	16 µg/mL (≈ 10.5 µM)	16 µg/mL (≈ 10.5 µM)	8 µg/mL (≈ 5.25 µM)	4 µg/mL (≈ 2.63 µM)	MBC ([8]; murium NCHU 15721): 32 µg/mL (≈ 21 µM); MIC ([8]; murium NCHU 15721): 16 µg/mL (≈ 10.5 µM)
CC(=O)N[C@@H](Cc1c[nH]c2ccccc12)C(=O)N[C@H](CCCCN)C(=O)N[C@H](CCCCN)C(=O)N[C@H](CC(C)C)C(=O)N[C@H](CCCCN)C(=O)N[C@H](CCCCN)C(=O)N[C@H](CC(C)C)C(=O)N[C@H](CC(C)C)C(=O)N[C@H](CCCCN)C(=O)N[C@H](CCCCN)C(=O)N[C@H](CC(C)C)C(N)=O [pepdD3, Ac-Wkklkkllkkl-NH2] (Ac-W[dK][dK][dL][dK][dK][dL][dL][dK][dK][dL]-NH2)	–	–	–	–	–	–	–	–	MIC ([10]; Cryptococcus neoformans H99): 8 µg/mL (≈ 5.45 µM); MFC ([10]; H99): 8 µg/mL (≈ 5.45 µM); MIC ([11]; Cryptococcus neoformans T1 (fluconazole-resistant)): 4 µg/mL (≈ 2.73 µM); MFC ([11]; T1 (fluconazole-resistant)): 4 µg/mL (≈ 2.73 µM); MFC ([12]; 89-610 (fluconazole-resistant)): 4 µg/mL (≈ 2.73 µM); MIC ([12]; Cryptococcus neoformans 89-610 (fluconazole-resistant)): 4 µg/mL (≈ 2.73 µM); MFC [13]: 4 µg/mL (≈ 2.73 µM); MIC ([13]; Cryptococcus deuterogattii R265): 4 µg/mL (≈ 2.73 µM)
Ac-WKKLKKFLKKL-NH2 [pepD3-7F]	–	–	–	–	–	–	8 µg/mL	4 µg/mL	–
Ac-WKKVKKVVKKVKKV-NH2 [pepV2]	–	–	–	–	–	–	–	–	MBC [1]: 32.0 µg/mL; MIC [1]: 32.0 µg/mL
CCCCCCCC(=O)N[C@@H](Cc1c[nH]c2ccccc12)C(=O)N[C@@H](CCCCN)C(=O)N[C@@H](CCCCN)C(=O)N[C@@H](CC(C)C)C(=O)N[C@@H](CCCCN)C(=O)N[C@@H](CCCCN)C(=O)N[C@@H](CC(C)C)C(=O)N[C@@H](CC(C)C)C(=O)N[C@@H](CCCCN)C(=O)N[C@@H](CCCCN)C(=O)N[C@@H](CC(C)C)C(N)=O [pepD3O] (Octanoyl-WKKLKKLLKKL-NH2)	16 µg/mL (≈ 10.3 µM)	16 µg/mL (≈ 10.3 µM)	8 µg/mL (≈ 5.16 µM)	8 µg/mL (≈ 5.16 µM)	8 µg/mL (≈ 5.16 µM)	8 µg/mL (≈ 5.16 µM)	–	–	–
Stearyl-WKKLKKLLKKLKKL-NH2 (stearyl-WKKLKKLLKKLKKL-NH2) [pepD2S, 11]	–	–	–	–	–	–	–	–	MFC [9, 17]: — (“—” indicates no antimicrobial activity being detected at the highest peptide concentration (32 μg/mL) tested in this study.); MIC [9, 17]: — (“—” indicates no antimicrobial activity being detected at the highest peptide concentration (32 μg/mL) tested in this study.); MFC [14]: — (“—” indicates no antimicrobial activity being detected at the highest peptide concentration (32 μg/mL) tested in this study.); MIC [14]: — (“—” indicates no antimicrobial activity being detected at the highest peptide concentration (32 μg/mL) tested in this study.)
Ac-WKKLKKALKKL-NH2 [pepD3-7A]	–	–	–	–	–	–	8 µg/mL	4 µg/mL	–
